# Results: a melting point compilation (Tetko et al.)
row,Structure (SMILES),melting point [°C]
1,CC(Nc1ccc(Br)cn1)=C(C#N)C(=O)c1ccccc1,179 to 181
2,Clc1cc2c(Cl)cccc2c(Cl)c1Cl,141
3,CC(C)C12CCC(C)(O1)C(=O)OC2=O (configuration not stated),109
4,CC(=O)Oc1cc(-c2ccccc2)cc2ccccc12,60
5,COc1ccc2c(=O)c3ccccc3oc2c1CN1CCCCC1,160
6,O=C=Nc1c(Br)cc(F)cc1Br,44
7,COc1cc(Cl)c(Cl)cc1OC,83
8,CC1(C)CC(=O)c2c(C(=O)c3cccs3)noc2C1,131
9,CC(=O)OCc1ccc(C=O)o1,52 to 56
10,CC1(C)C=C(C(N)=O)C(C)(C)N1O,198 to 200
11,CC12CCC3=C(CC[C@]4(C)C(=O)CC[C@@H]34)[C@H]1CCC(=O)C2 (some centres not stated),149
12,CN(C)C(=O)SCCCCOc1ccccc1,40.5
13,CC(C)(C)OC(=O)N[C@H]1CCC[C@H]1C(=O)O (relative stereo),90 to 94
14,Cc1sc(C2CCN(C(=O)OC(C)(C)C)CC2)nc1CC(=O)O,48 to 50
15,COc1cc2c(cc1O)C(Cc1ccc(O)cc1)NCC2 (configuration not stated),220
16,Nc1ccc(OCCCCCN2C(=O)c3ccccc3C2=O)cc1,113
17,O=C(Oc1cccc([N+](=O)[O-])c1)c1ccccc1,95
18,CC(=O)OC1CC2(O)C(CCC3(C)C(c4ccc(=O)oc4)CCC32O)C2(C)CCC(OC3OC(CO)C(O)C(O)C3O)C=C12 (configuration not stated),169
19,COc1ccc(-c2csc(/C(C#N)=N\Nc3ccc(O)cc3)n2)cc1,235
20,OCc1cc2cc(Br)ccc2o1,101 to 103
21,CCCCCCCCCCCCCCCCCC(=O)OC(C)C,28
22,O=C(CCC(O)c1ccccc1)c1ccccc1 (configuration not stated),95
23,CN1CCC23CCCCC2C1Cc1ccc(O)cc13 (configuration not stated),198

row,Structure (SMILES),melting point [°C]
1,CCCCN(CCO)CCCC,-75
2,Clc1ccc(-c2cc3ccccc3[nH]2)cc1,206
3,Nc1ncnc2c1ncn2C1(CO)OC(CO)C(O)C1O (configuration not stated),212
4,CC(C)c1ccc2cc(C(C)C)ccc2c1,69
5,O=C(F)c1ccccc1,-28
6,O=[N+]([O-])c1cc2nccnc2cc1[N+](=O)[O-],188 to 191
7,c1ccc(P(c2ccccc2)c2ccc3ccccc3c2-c2c(P(c3ccccc3)c3ccccc3)ccc3ccccc23)cc1,283
8,CC(CC(C)(C)O)OC(O)C(Cl)(Cl)Cl (configuration not stated),103
9,O=C1Cc2cccc3cccc1c23,121
10,O=C(Cl)C(Cl)(c1ccccc1)c1ccccc1,47 to 52
11,COC(=O)C1=C(C)NC(C)=C(C(=O)OC)C1c1ccccc1,198
12,Cc1cc(CC(C)CC(C)(C)C)n(O)c(=O)c1 (configuration not stated),108
13,OCC(O)C(O)C(O)C(O)CO (configuration not stated),190
14,O=C(Nc1ccc(Cl)cc1)c1cc(Cl)cc(Cl)c1O,142
15,N#CC(=Cc1ccccc1Cl)c1nc2ccccc2s1,139
16,CC(=O)c1ccc(N2CCCCC2)cc1,84 to 90
17,c1ccc2c(c1)ccc1ccc3ccc4ccc5cccnc5c4c3c12,270
18,O=C(Nc1ccccc1)C(F)(F)F,86 to 90
19,Cc1ccc(C(=O)c2ccccc2C(=O)O)cc1[N+](=O)[O-],205
20,CC(C(=O)O)C1CCC2C3CCC4CC(=O)CCC4(C)C3CCC12C (configuration not stated),253
21,CC(=O)c1ccc(O)c(O)c1,117 to 119
22,CCC1CC(NC(=O)CBr)C(C)(C)N1O (configuration not stated),148 to 150
23,NCc1ccc(-c2ccsc2)cc1,116 to 117

row,Structure (SMILES),melting point [°C]
1,CCOC(=O)N=C(c1ccc[nH]1)N1CCOCC1,147 to 149
2,NCCCCCCCCCCCCN,70
3,CCCOC(=O)C(=O)OCCC,-44.3
4,CCCCCCCCCCCCC(C)O (configuration not stated),34
5,CNc1ccc2cc3ccc(N(C)S(C)(=O)=O)cc3nc2c1CO,150
6,CCOC(=O)N/C=C1/C(=O)C2(C)CCC1C2(C)C (configuration not stated),162
7,Cc1cc(C(=O)O)c(C)n1Cc1ccncc1,171 to 173
8,CC(=NO)c1ccccc1,60
9,O=C(O)C(O)c1ccc(F)c(F)c1 (configuration not stated),94
10,CC1=C(Cl)CCP(=O)(c2ccccc2)C1 (configuration not stated),143
11,O=S(=O)(Cl)c1ccc(-c2ccc(Cl)c(Cl)c2)cc1,105 to 106
12,COC(=O)c1sc(-c2ccccc2)cc1N,147 to 149
13,COc1cc(N=C=S)cc(OC)c1OC,65
14,Nc1ncc(Cl)cc1I,97
15,CCNCCO,-6
16,CC12CCC(/C(=C\Nc3ccccc3C(=O)O)C1=O)C2(C)C (configuration not stated),176
17,CCN(CC)c1ccc(C(C)=O)cc1,48
18,COC(=O)c1ccc(/C=C/c2ccc(C(=O)OC)cc2)cc1,235
19,CC(C)(O)C12CC3CC(CC(C3)C1)C2,75
20,COc1ccc(C23C(=C(c4ccccc4)c4ccccc4)C4CC2C3(C)C4(C)C)cc1 (configuration not stated),124
21,O=COC1OC(=O)c2ccccc21 (configuration not stated),82
22,Cn1c(N)c(N=O)c(=O)[nH]c1=O,300
23,CCCCCC=CC(=O)O,5 to 6

row,Structure (SMILES),melting point [°C]
1,c1ccc(N2CN(c3ccccc3)CN(c3ccccc3)C2)cc1,191
2,O=C(c1ccccc1)c1ccc(C(=O)c2ccccc2)cc1,163
3,Cn1c(=O)c(C2=NNC(=O)C2=CNc2ccccn2)c(O)c2ccccc21,235
4,CC1(C)OC(=O)C(=Cc2ccc([N+](=O)[O-])cc2)C(=O)O1,301
5,NNc1ccc(Cl)cc1[N+](=O)[O-],134
6,CCOC(=O)c1cn[nH]c1,77
7,CC1=CCC(=O)O1,18
8,CC(=O)N1CCNCC1,32
9,COc1cccc(C(CCC(=O)O)C(C)(C)C(=O)O)c1 (configuration not stated),137
10,O=C1CCCc2ccc(Br)cc21,78 to 79
11,CCOC(=O)C(=Cc1cc(C=C(C(=O)OCC)C(=O)OCC)cc([N+](=O)[O-])c1)C(=O)OCC,80
12,COc1ccc(C=Cc2ccccc2)cc1,135 to 138
13,Cc1cc(CCN2CCN(c3cccc(Cl)c3)CC2)n[nH]1,106
14,ClC1CCCCC1,-44
15,Cc1ccc2cnn(C)c2n1,184
16,CCNC(=S)Nc1ccccc1,102 to 104
17,Cc1nccn1-c1ccc(N)cc1,112 to 113
18,O=C(/C=C/c1ccc(-c2ccc(Cl)cc2)o1)c1ccco1,148
19,CCCCC(=O)Cl,-110
20,CC=C(c1ccccc1)c1ccccc1,49
21,CCN(C(=O)N(CC)c1ccccc1)c1ccccc1,79
22,CCN(CC)CCSC(=O)N(c1ccccc1)c1ccccc1,48
23,CCC(C)C(N)CO (configuration not stated),36 to 39
